Data: patent US20260115177A1, “MEDICINAL PRODUCTS AND METHODS FOR THE ALLEVIATION OF CANCER IMMUNOTHERA-PY-ASSOCIATED CYTOKINE RELEASE SYNDROME” (POOLBEG PHARMA (UK) LIMITED, priority 2023, published 2026)

Legend:
HUVEC endothelial cells [1] = assay: IL-6 and IL-8 ELISA of HUVEC cells treated with sCART-mono supernatant; assay type: cell-based, human; conditions: 24 hr, concentrations of Table 2
Procedure: (§1) With reference to FIG. 13 of the accompanying drawings, a co-culture (100) is established using a standard cell culture transwell dish, including a first compartment (101), containing CAR T cells and cancer cells (at a 1:1 ratio), which is separated from a second compartment (102), containing monocytes, by a semi-permeable membrane (103) composed of tissue-culture treated polyethylene terephthalate with a 0.4 μm pore size.
(§2) Each of UR-13870, Acumapimod and Ralimetinib are administered to the co-culture following a procedure analogous to that described in Example 2 above (at the concentrations as shown in Table 2 above).
(§3) The co-culture is incubated at 37° C., 5% CO2 and a suitably humid environment for 24 hours. On completion, the transwell insert is removed and supernatant is isolated. Cells and debris are removed from the supernatant by exposing the container to a centripetal force of 400 G and gently pipetting the supernatant into a new container without disturbing the cell pellet at the bottom of the previous container.
(§4) Prior to adding the p38 inhibitors and sCART-mono, endothelial cells are incubated overnight at 37° C. and 5% CO2 in a suitably humid environment to allow the cells to adhere fully to the tissue culture dish.
Supernatant levels of IL-6 and IL-8 are determined following 24 hr treatment with sCART-mono and the p38 MAPK inhibitors by ELISA.

HUVEC endothelial cells [2] = assay: QPCR of ICAM1 in HUVEC cells treated with sCART-mono supernatant; assay type: cell-based, human; conditions: 24 hours
Procedure: as §1, §2, §3, §4
Reduced endothelial cell activation is evidenced by reduced ICAM1 expression in response to treatment with UR-13870, Acumapimod and Ralimetinib.

CAR T cells [3] = assay: CAR T cell proliferation in CAR T cell:cancer cell co-culture (Cell Trace Violet, flow cytometry); assay type: cell-based, human; conditions: CAR T:tumour cell co-culture 1:1; concentrations of Table 2
Procedure: CAR T cell proliferation is confirmed by Cell Trace™ Violet staining of CAR T cells (staining agent having been added prior to addition of the T cells to the co-cultures with tumour cells). Staining may be observed, following co-culture, via flow cytometry.
(§5) UR-13870, Ralimetinib or Acumapimod are each added to a culture of CD19+ cancer cells (using a micropipette to transfer the correct volume to achieve the desired final concentration in Table 2).
(§6) CAR T cells are then added to the same culture 5-10 minutes later. In brief, CAR T cell concentrations per ml are determined and used to aliquot the desired number of CAR T cells into the culture to achieve the described 1:1 CAR T to cancer cell ratio.
(§7) The co-culture containing CAR T cells and tumour cells is swirled gently to ensure homogenous dispersion of cells throughout the vessel. The resultant co-culture is incubated for 24 to 96 hours in a closed incubator at 37° C. with 5% CO2 and a suitably humid atmosphere.

CAR T cells [4] = assay: T cell exhaustion markers TIM3 and LAG3 on CAR T cells in co-culture (flow cytometry); assay type: cell-based, human; conditions: CAR T:tumour cell co-culture, concentrations of Table 2; for number of LAG3+ CAR T cells: Ralimetinib 5 μM results to be disregarded
Procedure: as §5, §6, §7
Both T cell surface markers T cell immunoglobulin and mucin domain-containing protein 3 (TIM3/CD366) and Lymphocyte Activation Gene 3 (LAG3/CD223) are associated with T cell exhaustion and disease progression during immunotherapy treatment. Advantageously, all of UR-13870, Ralimetinib and Acumapimod reduce both the number of TIM3+ CAR T cells, and the number of LAG3+ CAR T cells. […] For LAG3+, the results for Ralimetinib at a 5 μM concentration appear to have been affected by experimental failure, and these may be disregarded accordingly.

THP-1 monocytes = assay: IL-6 ELISA of THP-1 monocytes treated with sCAR; assay type: cell-based, human; conditions: sCAR stimulation, 24 hours; concentrations of Table 2
Procedure: In Example 3 below, sCAR (or smCAR) is added using a micropipette to an in vitro culture of monocyte cells of the human monocytic cell line THP-1, available from the American Type Culture Collection. The culture is incubated in a closed incubator at 37° C. with 5% CO2 and a suitably humid atmosphere for approximately 24 hours, following which cytokine release is observed. p38 MAPK activation and cytokine release are confirmed by evaluation of the presence of IL-6 in THP-1 cells using an enzyme-linked immunosorbent assay (ELISA; for which a kit is suitably obtainable from Thermo Fisher Scientific of Kingfisher Dr, Swindon SN3 5BZ, UK).
(i) Monocytes sCAR (or smCAR), produced as described in Example 1 above, is added to a monoculture of THP-1 monocytes in the presence of UR-13870, Ralimetinib or Acumapimod at each of the concentrations shown in Table 2 above at 37° C., 5% CO2 and a suitably humid environment for 24 hours.
Supernatant levels of IL-6 from the THP-1 monocyte monoculture with sCAR (or smCAR) are determined by ELISA.

HUVEC endothelial cells [5] = assay: QPCR of VCAM1, ICAM1 and IL-6 in HUVEC cells treated with sCAR; assay type: cell-based, human; conditions: 24 hours
Procedure: (§8) In like manner and also in Example 3 below, sCAR (or smCAR) is added to endothelial (HUVEC) cells, available from the American Type Culture Collection, and using an equivalent protocol to the treatment of THP-1 cells (but with individually optimised conditions, such as the concentration of sCAR used), following which IL-6 release and IL-8 release are observed. Pro-inflammatory cytokines IL-6 and IL-8 are measured using an enzyme-linked immunosorbent assay (ELISA) and IL-6, ICAM1 and VCAM1 are measured by quantitative PCR (QPCR, for which a kit is suitably obtainable from Thermo Fisher Scientific of Kingfisher Dr, Swindon SN3 5BZ, UK).
(§9) sCAR (or smCAR), produced as described in Example 1 above, is added to a monoculture of HUVEC endothelial cells in the presence of UR-13870, Ralimetinib or Acumapimod at each of the concentrations shown in Table 2 above, at 37° C., 5% CO2 and a suitably humid environment for 24 hours.

HUVEC endothelial cells [6] = assay: IL-6 and IL-8 ELISA of HUVEC endothelial cells treated with sCAR; assay type: cell-based, human; conditions: sCAR stimulation, 24 hours; concentrations of Table 2
Procedure: as §8, §9
Supernatant levels of IL-6 and IL-8 from the HUVEC endothelial cell monoculture with sCAR (or smCAR) are determined by ELISA.

CAR T cells [7] = assay: TNFα immunosorbent assay of CAR T:tumour cell co-culture supernatant; assay type: cell-based, human
Procedure: as §5, §6, §7
Cytokine release by T cells is also quantified by TNFα enzyme-based immunosorbent assays of co-culture supernatant, as shown in FIG. 9. Ralimetinib and Acumapimod reduced TNF-α secretion following treatment. Data for UR-13870 were discarded due to failures in the UR-13870 experimental procedure.

CD19+ cancer cells = assay: CAR T cell killing of tumour cells in 24-hour co-culture (flow cytometry); assay type: cell-based, human; conditions: high dose only, CAR T to cancer cell ratio 1:1
Source text: Raji immortalized human B cell line CD19-expressing cancer cells (available from the American Type Culture Collection) are acquired and stable transfection of the Raji cell line is generated with an mCherry reporter protein to facilitate identification of the cancer cells within co-cultures by detection of the mCherry protein fluorescence by flow cytometry.
as §5, §6, §7
Tumour cell death is observed by examining relative CAR T cell:tumour cell numbers by flow cytometry following 24 hour co-culture, as shown in FIG. 7.

CAR T cells [8] = conditions: in vitro expansion; inhibitor washed out before adoptive transfer; cited from earlier work

SMILES | IL-6 levels in supernatant (HUVEC endothelial cells [1]) | IL-8 levels in supernatant (HUVEC endothelial cells [1]) | ICAM1 expression (endothelial cell activation) (HUVEC endothelial cells [2]) | CAR T cell proliferation (Cell Trace Violet staining) (CAR T cells [3]) | number of TIM3+ CAR T cells (CAR T cells [4]) | number of LAG3+ CAR T cells (CAR T cells [4]) | IL-6 secretion by THP-1 monocytes (THP-1 monocytes) | ICAM1 mRNA levels (HUVEC endothelial cells [5]) | IL-6 mRNA levels (HUVEC endothelial cells [5]) | VCAM1 mRNA levels (HUVEC endothelial cells [5]) | IL-6 secretion by HUVEC cells (HUVEC endothelial cells [6]) | IL-8 supernatant level, HUVEC cells (HUVEC endothelial cells [6]) | TNF-α secretion (co-culture supernatant) (CAR T cells [7]) | CAR T cell-induced cancer cell death (percentage of residual tumour cells in the co-culture) (CD19+ cancer cells) | CAR T cell phenotypes (CAR T cells [8])
CC(C)(C)Cn1c(N)nc2ccc(-c3[nH]c(C(C)(C)C)nc3-c3ccc(F)cc3)nc21 [Ralimetinib, 5-[2-tert-Butyl-4-(4-fluorophenyl)-1H-imidazol-5-yl]-3-(2,2-dimethylpropyl)imidazo[4,5-b]pyridin-2-amine] | reduced | (albeit non-significant) downward trend | reduced | maintain CAR T cell proliferation | reduce | reduce | significantly reduce | significantly reduce | significantly reduce | reduced, albeit non-significantly | significantly reduce | reduced | reduced | maintain CAR T cell-induced cancer cell death | –
Cc1ccc(-n2nc(C(C)(C)C)cc2NC(=O)Nc2ccc(OCCN3CCOCC3)c3ccccc23)cc1 [Doramapimod/BIRB796] | – | – | – | – | – | – | – | – | – | – | – | – | – | – | promote desirable CAR T cell phenotypes in vitro
Cc1ccc(C(=O)NC2CC2)cc1-n1ncc(C(=O)c2cccc(C#N)c2)c1N [Acumapimod, 3-[5-amino-4-(3-cyanobenzoyl)pyrazol-1-yl]-N-cyclopropyl-4-methylbenzamide] | reduced | (albeit non-significant) downward trend | reduced | maintain CAR T cell proliferation | reduce | reduce | significantly reduce | significantly reduce | significantly reduce | reduced, albeit non-significantly | significantly reduce | reduced | reduced | maintain CAR T cell-induced cancer cell death | –
